Earlier results as cited in patent US20240009181A1, “METHOD FOR THE TREATMENT AND PROPHYLAXIS OF SUBSTANCE-RELATED AND/OR ADDICTIVE DISORDERS INCLUDING SUBSTANCE/MEDICATION-INDUCED DEPRESSIVE DISORDERS, BIPOLAR AND RELATED DISORDERS, AND ANXIETY DISORDERS AND COMPOSITIONS USEFUL FOR THE SAME” (priority 2022, published 2024).

Assays:
[1] = in vivo
opioid use disorder = settings: vs. 23% given placebo

SMILES	half-life [1]	complete abstinence (opioid-free over 19 weeks of treatment), share of subjects (opioid use disorder)
O=C1CCc2ccc(OCCCCN3CCN(c4cccc(Cl)c4Cl)CC3)cc2N1 [aripiprazole]	about 75 hours	
O=c1ccc2ccc(OCCCCN3CCN(c4cccc5sccc45)CC3)cc2[nH]1 [brexpiprazole]	about 91 hours	
O=C1CC[C@@]2(O)[C@H]3Cc4ccc(O)c5c4[C@@]2(CCN3CC2CC2)[C@H]1O5 [naltrexone]		36%
CC1(C)O[C@@H]2[C@@H](CO[C@@]3(COS(N)(=O)=O)OC(C)(C)O[C@@H]23)O1 [topiramate]	about 21 hours	
